Structures can show the parent of a compound that is named as a salt.

Series [1] concerns the target T1, cloned human 5-HT1A receptors (Homo sapiens, UniProt P08908).
T1 construct: expressed in transfected cells
T1 sequence (P08908 1-422): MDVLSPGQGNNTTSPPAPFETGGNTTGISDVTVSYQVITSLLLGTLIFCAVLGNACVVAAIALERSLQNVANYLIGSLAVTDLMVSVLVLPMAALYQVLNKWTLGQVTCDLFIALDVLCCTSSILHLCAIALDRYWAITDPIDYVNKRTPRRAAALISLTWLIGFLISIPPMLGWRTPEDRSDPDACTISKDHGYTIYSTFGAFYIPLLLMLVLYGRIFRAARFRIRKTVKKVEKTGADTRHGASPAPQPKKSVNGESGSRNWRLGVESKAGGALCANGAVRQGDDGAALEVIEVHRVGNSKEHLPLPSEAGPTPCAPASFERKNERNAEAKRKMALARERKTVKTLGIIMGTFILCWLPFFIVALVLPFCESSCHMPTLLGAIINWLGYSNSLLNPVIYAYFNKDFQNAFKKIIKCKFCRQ
Nature of the series: 35S-GTPγS binding assay, 5-HT1A antagonist activity. In kind it is biochemical. To be noted: reversal of standard agonist 8-OHDPAT; for IC50: read-out: 5-HT1A Function IC50. How it is done:
Antagonist activity at 5-HT1A receptors was established by using a ^35S-GTPγS binding assay similar to that used by Lazareno and Birdsall (Br. J. Pharmacol. 109: 1120, 1993), in which the test compound's ability to affect the binding of ^35S-GTPγS to membranes containing cloned human 5-HT1A receptors was determined. Agonists produce an increase in binding whereas antagonists produce no increase but rather reverse the effects of the standard agonist 8-OHOPAT. The test compound's maximum inhibitory effect is represented as the Imax, while its potency is defined by the IC50.

The target of series [2] is T2, serotonin transporter (Rattus norvegicus, UniProt P31652).
T2 construct: displace ^3H-paroxetine from male rat frontal cortical membranes; from tissue; host or cells: male rat frontal cortex membranes
T2 sequence (P31652 whole entry): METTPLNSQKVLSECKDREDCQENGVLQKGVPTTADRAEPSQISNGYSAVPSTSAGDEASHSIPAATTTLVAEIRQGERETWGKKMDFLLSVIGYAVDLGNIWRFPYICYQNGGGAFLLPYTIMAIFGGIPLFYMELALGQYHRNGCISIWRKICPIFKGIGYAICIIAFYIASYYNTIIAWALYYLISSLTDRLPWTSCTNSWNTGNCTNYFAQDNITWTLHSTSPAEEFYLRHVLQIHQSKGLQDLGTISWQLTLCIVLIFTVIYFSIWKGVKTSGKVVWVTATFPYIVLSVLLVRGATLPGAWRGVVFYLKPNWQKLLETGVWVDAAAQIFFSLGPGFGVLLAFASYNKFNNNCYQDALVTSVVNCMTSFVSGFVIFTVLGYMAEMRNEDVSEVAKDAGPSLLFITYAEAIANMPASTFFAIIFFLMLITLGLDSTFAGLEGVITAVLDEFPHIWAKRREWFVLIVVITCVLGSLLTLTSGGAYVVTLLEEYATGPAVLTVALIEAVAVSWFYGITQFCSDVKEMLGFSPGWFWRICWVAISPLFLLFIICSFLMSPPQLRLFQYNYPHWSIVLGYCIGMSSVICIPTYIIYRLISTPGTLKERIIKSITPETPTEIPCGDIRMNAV
The experiment in a line: 3H-paroxetine displacement, serotonin transporter affinity. In kind it is binding.

The target of series [3] is T3, human 5-HT1A receptors (Homo sapiens, UniProt P08908).
T3 construct: expressed in transfected cells; host or cells: CHO cells (stably transfected)
T3 sequence (P08908 1-422): T1 sequence (P08908 1-422)
Nature of the series: [3H] 8-OHDPAT displacement, 5-HT1A receptor affinity. Format: binding. An excerpt: High affinity for the serotonin 5-HT1A receptor was established by testing the claimed compound's ability to displace [^3H] 8-OHDPAT (dipropylaminotetralin) from the 5-HT1A serotonin receptor following a modification of the procedure of Hall et al., J. Neurochem. 44, 1685 (1985) which utilizes CHO cells stably transfected with human 5-HT1A receptors.

What is called melting point is the temperature of the solid-liquid transition. `C1=C(c2c[nH]c3ccccc23)CCN(C[C@H]2COc3cccnc3O2)C1` (as salt: oxalate) [Example 1] came in with a melting point of 116 °C.
`Fc1ccc2[nH]cc(C3=CCN(CC4COc5cccnc5O4)CC3)c2c1` (centres unmarked) (as salt: oxalate) [Example 2, 3-{[4-(5-Fluoro-1H-indol-3-yl)-3,6-dihydro-1(2H)-pyridinyl]methyl}-2,3-dihydro{1,4]dioxino[2,3-b]pyridine]: the melting point amounted to 124 °C.
In turn, `N#Cc1ccc2[nH]cc(C3=CCN(CC4COc5cccnc5O4)CC3)c2c1` (centres unmarked) (as salt: oxalate) [Example 3, 3-{1-[2,3-Dihydro[1,4]dioxino[2,3-b]pyridin-3-ylmethyl]-1,2,3,6-tetrahydro-4-pyridinyl}-1H-indole-5-carbonitrile] had a melting point of 165 °C.
Compound `Fc1ccc2c(C3=CCN(CC4COc5cccnc5O4)CC3)c[nH]c2c1` (centres unmarked) (as salt: oxalate) [Example 4, 3-{[4-(6-Fluoro-1H-indol-3-yl)-3,6-dihydro-1(2H)-pyridinyl]methyl}-2,3-dihydro[1,4]dioxino[2,3-b]pyridine] registered a melting point of 120 °C.
The IC50 is the point on the concentration scale where inhibition reaches its midpoint. As usually defined, the Ki is a dissociation constant, usually derived from enzyme kinetics or from competition with a known ligand. As to `C1=C(c2c[nH]c3ccccc23)CCN(C[C@H]2COc3cccnc3O2)C1` [Example 1], in series [1], the IC50 was 197 nM. The Ki is 9.5 nM in series [2] and 14.3 nM in series [3].
On the same counts, the results for `Fc1ccc2[nH]cc(C3=CCN(CC4COc5cccnc5O4)CC3)c2c1` (centres unmarked) [Example 2, 3-{[4-(5-Fluoro-1H-indol-3-yl)-3,6-dihydro-1(2H)-pyridinyl]methyl}-2,3-dihydro{1,4]dioxino[2,3-b]pyridine] are 57 nM, 2.39 nM and 6.81 nM.
As for `N#Cc1ccc2[nH]cc(C3=CCN(CC4COc5cccnc5O4)CC3)c2c1` (centres unmarked) [Example 3, 3-{1-[2,3-Dihydro[1,4]dioxino[2,3-b]pyridin-3-ylmethyl]-1,2,3,6-tetrahydro-4-pyridinyl}-1H-indole-5-carbonitrile], in series [1], the “5-HT1A Function Imax (maximum inhibitory effect)” value turned out to be 100% and the IC50 was 183 nM. In series [2], this compound had a Ki of 2.58 nM. In addition, the Ki in series [3] came to 22.4 nM.
On to `Fc1ccc2c(C3=CCN(CC4COc5cccnc5O4)CC3)c[nH]c2c1` (centres unmarked) [Example 4, 3-{[4-(6-Fluoro-1H-indol-3-yl)-3,6-dihydro-1(2H)-pyridinyl]methyl}-2,3-dihydro[1,4]dioxino[2,3-b]pyridine], for which the IC50 in series [1] is 618 nM. For the same compound, the figures for the Ki in series [2] and in series [3] were 1.21 nM and 10.2 nM, respectively.

(Values after US6987117B2, “Antidepressant azaheterocyclylmethyl derivatives of 1,4-dioxino[2,3-b]pyridine” (Wyeth, priority 2001, dated 2006).)
